The record followed here is ChEMBL document CHEMBL3627608, “Crystal structures of human RIP2 kinase catalytic domain complexed with ATP-competitive inhibitors: Foundations for understanding inhibitor selectivity” (Bioorg Med Chem, 2015).

The target of test [1] is T1, Serine/threonine-protein kinase Nek9 (Homo sapiens) (UniProt Q8TD19).
T1 sequence (whole entry): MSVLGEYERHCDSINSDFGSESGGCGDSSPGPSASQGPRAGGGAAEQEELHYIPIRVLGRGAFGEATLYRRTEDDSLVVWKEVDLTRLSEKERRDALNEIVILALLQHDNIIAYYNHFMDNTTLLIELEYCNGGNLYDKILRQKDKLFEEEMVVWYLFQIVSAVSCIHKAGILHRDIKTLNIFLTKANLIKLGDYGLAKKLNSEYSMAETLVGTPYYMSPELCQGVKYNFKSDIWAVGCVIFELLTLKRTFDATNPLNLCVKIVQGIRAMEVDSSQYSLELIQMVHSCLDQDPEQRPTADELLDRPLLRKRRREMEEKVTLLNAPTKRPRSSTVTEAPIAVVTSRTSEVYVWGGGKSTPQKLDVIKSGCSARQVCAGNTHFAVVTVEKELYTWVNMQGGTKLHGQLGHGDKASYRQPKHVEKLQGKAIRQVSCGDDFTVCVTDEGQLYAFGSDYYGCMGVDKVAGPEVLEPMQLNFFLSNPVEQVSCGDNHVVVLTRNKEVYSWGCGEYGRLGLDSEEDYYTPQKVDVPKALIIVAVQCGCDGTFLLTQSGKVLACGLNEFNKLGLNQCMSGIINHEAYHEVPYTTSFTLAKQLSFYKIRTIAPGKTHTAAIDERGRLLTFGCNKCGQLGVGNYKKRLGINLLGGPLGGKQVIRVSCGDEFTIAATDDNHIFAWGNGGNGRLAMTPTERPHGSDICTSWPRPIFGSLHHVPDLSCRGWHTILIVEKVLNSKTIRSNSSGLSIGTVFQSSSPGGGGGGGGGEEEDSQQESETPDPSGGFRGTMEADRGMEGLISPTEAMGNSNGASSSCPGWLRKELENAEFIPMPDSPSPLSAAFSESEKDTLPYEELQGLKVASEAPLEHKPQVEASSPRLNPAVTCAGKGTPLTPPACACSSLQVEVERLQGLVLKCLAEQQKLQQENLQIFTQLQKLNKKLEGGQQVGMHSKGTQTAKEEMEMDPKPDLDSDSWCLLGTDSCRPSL
The experiment in a line: Inhibition of NEK9 (unknown origin) at 10 uM after 120 mins P33 radiolabeled kinase activity assay.

The target of test [2] is Ephrin type-A receptor 5 (Homo sapiens) (UniProt P54756). The experiment in a line: Inhibition of EPHA5 (unknown origin) at 10 uM after 120 mins P33 radiolabeled kinase activity assay.
Test [3] addresses Ephrin type-A receptor 2 (Homo sapiens) (UniProt P29317). The test is described as follows: Inhibition of EPHA2 (unknown origin) at 10 uM after 120 mins P33 radiolabeled kinase activity assay.
The target of test [4] is T2, Serine/threonine-protein kinase DCLK2 (Homo sapiens) (UniProt Q8N568).
T2 sequence (whole entry): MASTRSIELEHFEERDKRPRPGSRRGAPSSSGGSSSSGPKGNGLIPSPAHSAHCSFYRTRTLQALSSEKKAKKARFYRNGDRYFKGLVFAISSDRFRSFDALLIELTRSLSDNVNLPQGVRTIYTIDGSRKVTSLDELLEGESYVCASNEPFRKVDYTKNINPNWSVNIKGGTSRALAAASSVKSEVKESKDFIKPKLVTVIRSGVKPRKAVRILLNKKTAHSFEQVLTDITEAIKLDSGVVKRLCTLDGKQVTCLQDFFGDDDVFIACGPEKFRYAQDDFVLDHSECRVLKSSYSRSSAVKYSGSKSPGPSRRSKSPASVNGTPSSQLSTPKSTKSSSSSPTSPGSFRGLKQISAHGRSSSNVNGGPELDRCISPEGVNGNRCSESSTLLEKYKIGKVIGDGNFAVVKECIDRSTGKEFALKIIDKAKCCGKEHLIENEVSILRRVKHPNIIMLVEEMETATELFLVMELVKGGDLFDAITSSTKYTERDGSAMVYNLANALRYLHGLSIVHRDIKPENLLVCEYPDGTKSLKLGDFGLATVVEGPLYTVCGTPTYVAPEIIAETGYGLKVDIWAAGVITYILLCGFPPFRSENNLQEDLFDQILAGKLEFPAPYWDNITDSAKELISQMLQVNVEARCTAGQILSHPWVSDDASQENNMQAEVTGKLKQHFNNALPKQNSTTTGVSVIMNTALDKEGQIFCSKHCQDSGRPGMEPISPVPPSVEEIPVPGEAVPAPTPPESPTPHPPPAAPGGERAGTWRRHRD
The experiment in a line: Inhibition of DCAMKL2 (unknown origin) at 10 uM after 120 mins P33 radiolabeled kinase activity assay.

For test [5], the target named is T3, Serine/threonine-protein kinase DCLK1 (Homo sapiens) (UniProt O15075).
T3 sequence (whole entry): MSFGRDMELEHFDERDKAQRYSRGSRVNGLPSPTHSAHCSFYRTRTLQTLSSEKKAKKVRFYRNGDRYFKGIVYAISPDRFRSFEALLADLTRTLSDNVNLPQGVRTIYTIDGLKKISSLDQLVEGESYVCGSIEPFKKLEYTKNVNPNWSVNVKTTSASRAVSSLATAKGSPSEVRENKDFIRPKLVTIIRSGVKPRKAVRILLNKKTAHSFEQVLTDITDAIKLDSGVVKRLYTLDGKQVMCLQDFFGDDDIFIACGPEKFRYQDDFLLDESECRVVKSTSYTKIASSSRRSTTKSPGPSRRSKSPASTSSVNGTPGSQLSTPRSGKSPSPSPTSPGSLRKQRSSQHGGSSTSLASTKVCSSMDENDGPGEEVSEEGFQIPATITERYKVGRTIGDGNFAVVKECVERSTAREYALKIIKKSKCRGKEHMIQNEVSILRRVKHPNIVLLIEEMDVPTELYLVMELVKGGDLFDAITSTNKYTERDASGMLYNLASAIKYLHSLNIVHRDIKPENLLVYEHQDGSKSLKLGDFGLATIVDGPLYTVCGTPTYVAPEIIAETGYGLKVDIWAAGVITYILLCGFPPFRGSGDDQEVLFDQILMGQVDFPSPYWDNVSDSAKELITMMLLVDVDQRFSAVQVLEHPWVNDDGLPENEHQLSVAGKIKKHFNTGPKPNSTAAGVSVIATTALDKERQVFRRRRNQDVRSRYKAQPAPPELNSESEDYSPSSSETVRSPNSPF
The experiment in a line: Inhibition of DCAMKL1 (unknown origin) at 10 uM after 120 mins P33 radiolabeled kinase activity assay.

Test [6] concerns the target Fibroblast growth factor receptor 4 (Homo sapiens) (UniProt P22455). The experiment in a line: Inhibition of FGFR4 (unknown origin) at 10 uM after 120 mins P33 radiolabeled kinase activity assay.
Test [7] has as its target Serine/threonine-protein kinase MRCK gamma (Homo sapiens) (UniProt Q6DT37). The experiment in a line: Inhibition of DMPK2 (unknown origin) at 10 uM after 120 mins P33 radiolabeled kinase activity assay.

In general, inhibition refers to the drop in the measured response relative to a control, in per cent.

Chain of Fibroblast growth factor receptor 4 (Homo sapiens) (P22455 22-802 limits assumed): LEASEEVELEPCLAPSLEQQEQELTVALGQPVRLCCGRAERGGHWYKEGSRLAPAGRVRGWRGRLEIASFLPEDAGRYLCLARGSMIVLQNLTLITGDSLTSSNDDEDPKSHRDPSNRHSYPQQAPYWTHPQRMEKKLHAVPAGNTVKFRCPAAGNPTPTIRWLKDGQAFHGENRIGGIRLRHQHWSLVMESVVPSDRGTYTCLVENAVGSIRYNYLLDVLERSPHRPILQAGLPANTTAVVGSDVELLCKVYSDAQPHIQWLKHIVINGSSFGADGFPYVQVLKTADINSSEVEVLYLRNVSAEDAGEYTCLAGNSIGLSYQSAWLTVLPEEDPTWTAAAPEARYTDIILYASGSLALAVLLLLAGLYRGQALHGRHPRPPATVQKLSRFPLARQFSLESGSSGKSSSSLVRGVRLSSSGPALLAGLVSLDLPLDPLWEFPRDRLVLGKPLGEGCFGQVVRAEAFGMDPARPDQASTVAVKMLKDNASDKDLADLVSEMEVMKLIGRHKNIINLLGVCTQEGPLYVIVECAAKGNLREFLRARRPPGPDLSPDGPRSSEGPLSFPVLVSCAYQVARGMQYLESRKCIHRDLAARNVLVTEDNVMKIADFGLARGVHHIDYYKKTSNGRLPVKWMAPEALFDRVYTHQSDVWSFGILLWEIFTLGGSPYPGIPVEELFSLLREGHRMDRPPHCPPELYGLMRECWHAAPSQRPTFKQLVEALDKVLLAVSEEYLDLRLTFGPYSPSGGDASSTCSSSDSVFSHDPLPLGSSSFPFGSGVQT
Chain of Serine/threonine-protein kinase MRCK gamma (Homo sapiens) (Q6DT37 whole entry): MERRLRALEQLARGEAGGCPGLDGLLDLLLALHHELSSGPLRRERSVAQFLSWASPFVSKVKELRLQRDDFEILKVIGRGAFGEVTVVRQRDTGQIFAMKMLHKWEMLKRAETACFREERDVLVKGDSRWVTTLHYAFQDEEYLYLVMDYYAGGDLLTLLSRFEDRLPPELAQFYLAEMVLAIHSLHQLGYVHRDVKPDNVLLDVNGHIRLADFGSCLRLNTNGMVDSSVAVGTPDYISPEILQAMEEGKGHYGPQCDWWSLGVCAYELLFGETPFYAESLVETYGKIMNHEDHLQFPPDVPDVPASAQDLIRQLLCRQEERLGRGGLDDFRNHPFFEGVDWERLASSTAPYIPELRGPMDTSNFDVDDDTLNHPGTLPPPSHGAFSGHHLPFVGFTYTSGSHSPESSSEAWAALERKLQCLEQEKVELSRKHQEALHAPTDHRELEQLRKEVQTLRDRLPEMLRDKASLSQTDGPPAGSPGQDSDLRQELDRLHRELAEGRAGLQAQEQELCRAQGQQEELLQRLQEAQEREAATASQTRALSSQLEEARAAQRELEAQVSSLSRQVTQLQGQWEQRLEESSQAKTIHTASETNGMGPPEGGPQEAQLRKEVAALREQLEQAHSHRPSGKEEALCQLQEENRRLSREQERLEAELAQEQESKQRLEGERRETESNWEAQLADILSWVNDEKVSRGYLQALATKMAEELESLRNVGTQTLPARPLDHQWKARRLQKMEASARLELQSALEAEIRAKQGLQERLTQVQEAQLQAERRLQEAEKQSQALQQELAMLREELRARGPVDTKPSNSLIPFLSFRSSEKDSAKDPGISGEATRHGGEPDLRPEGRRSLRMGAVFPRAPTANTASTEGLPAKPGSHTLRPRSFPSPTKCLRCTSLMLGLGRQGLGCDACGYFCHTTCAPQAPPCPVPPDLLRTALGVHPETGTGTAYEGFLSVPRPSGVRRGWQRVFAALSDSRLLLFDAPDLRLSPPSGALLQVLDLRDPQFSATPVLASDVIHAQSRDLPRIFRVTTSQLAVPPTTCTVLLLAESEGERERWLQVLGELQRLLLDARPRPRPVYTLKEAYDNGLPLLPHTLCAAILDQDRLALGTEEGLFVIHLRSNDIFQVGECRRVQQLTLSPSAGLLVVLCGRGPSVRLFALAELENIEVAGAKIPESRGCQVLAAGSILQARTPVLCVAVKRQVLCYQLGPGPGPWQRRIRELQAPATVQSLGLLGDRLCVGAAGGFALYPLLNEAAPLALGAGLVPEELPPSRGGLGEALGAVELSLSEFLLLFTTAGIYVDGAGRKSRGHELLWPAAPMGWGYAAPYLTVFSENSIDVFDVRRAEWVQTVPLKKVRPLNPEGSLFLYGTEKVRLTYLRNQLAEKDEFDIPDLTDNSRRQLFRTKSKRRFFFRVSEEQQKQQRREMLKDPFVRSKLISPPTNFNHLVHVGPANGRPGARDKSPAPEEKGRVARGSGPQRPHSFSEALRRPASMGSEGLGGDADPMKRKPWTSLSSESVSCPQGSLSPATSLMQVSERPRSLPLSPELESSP
Chain of Ephrin type-A receptor 5 (Homo sapiens) (P54756 whole entry): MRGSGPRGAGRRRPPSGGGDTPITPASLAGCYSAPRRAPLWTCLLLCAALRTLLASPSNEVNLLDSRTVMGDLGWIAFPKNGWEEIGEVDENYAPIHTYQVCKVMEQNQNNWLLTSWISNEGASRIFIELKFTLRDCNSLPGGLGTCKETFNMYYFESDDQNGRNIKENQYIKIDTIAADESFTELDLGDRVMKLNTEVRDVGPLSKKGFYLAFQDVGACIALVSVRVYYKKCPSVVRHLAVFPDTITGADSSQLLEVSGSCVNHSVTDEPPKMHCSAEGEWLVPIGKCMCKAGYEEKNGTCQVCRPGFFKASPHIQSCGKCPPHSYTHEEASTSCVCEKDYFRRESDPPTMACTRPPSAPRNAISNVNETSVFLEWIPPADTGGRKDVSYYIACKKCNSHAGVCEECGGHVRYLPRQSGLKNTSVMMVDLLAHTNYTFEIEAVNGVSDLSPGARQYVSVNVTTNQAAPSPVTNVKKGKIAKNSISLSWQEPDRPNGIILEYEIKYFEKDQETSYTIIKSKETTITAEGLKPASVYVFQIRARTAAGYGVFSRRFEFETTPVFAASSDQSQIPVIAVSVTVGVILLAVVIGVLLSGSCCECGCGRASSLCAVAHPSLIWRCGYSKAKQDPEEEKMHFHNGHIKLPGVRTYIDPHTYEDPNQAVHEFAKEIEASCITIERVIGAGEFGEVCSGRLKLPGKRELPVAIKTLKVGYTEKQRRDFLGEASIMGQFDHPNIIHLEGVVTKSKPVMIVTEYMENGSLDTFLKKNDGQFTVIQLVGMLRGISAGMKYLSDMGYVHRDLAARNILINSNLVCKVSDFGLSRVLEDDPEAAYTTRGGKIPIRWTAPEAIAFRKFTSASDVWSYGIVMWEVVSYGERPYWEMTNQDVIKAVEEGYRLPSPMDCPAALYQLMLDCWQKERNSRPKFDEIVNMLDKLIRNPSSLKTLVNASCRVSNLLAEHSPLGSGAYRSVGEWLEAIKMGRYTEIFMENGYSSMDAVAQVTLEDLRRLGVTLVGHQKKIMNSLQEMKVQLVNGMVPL
Chain of Ephrin type-A receptor 2 (Homo sapiens) (P29317 whole entry): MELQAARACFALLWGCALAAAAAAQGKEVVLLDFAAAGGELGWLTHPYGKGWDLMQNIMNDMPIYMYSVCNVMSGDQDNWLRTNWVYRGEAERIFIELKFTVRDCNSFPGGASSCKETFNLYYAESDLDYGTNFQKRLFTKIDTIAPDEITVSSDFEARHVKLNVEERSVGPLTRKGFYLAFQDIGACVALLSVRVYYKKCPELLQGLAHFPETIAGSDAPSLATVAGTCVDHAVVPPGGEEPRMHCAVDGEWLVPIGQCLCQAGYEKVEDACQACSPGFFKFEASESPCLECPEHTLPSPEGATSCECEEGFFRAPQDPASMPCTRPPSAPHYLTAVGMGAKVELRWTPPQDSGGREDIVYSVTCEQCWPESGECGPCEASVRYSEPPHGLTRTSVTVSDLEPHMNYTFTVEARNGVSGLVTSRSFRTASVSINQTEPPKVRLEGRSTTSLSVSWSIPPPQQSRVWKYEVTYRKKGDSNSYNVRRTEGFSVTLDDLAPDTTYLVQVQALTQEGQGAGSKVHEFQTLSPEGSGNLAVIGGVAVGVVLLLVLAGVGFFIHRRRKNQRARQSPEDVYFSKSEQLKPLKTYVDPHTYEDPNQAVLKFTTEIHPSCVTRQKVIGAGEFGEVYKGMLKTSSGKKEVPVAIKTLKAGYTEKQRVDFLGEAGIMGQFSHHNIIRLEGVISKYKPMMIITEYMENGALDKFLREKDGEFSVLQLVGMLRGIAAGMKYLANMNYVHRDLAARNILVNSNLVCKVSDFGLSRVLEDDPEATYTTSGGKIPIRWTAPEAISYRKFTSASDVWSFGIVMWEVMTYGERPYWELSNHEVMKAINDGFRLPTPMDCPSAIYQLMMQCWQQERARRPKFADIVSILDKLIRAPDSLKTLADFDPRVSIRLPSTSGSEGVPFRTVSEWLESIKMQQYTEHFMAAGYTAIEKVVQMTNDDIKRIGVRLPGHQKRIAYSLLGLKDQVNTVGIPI

In the case of `CS(=O)(=O)c1cccc(Nc2nccc(-c3sc(N4CCOCC4)nc3-c3cccc(NS(=O)(=O)c4c(F)cccc4F)c3)n2)c1`, the inhibition is 100% in test [1]; 58% in test [2]; 68% in test [3]; -1.11% in test [4]; 8.06% in test [5]; 47.3% in test [6]. Further, in test [7], the inhibition was -3.32%.

`CC(C)(C)c1cc(NC(=O)Nc2ccc(Oc3ccncc3)cc2)no1`: the inhibition in test [1] was 20.9%; in test [2] it was 95.5%; in test [3], 97.3%; in test [4] it was 2.04%; in test [5], 2.97%; in test [6], 73.3%. The inhibition in test [7] was -1.44%.

Consider `COCCNC(=O)c1ccc2c(c1)nc(-c1cnc(-c3ccc(Cl)cc3)[nH]1)n2CCOC`, for which the inhibition in test [1] was -6.23%; in test [2], 20.2%; in test [3] it was 19.6%; in test [4], -0.71%; in test [5], 4.11%; in test [6], 3.75%. Further, in test [7], the inhibition is -3.48%.
